These are literature values, as cited in article PMC3629230, “Permeability Enhancers Dramatically Increase Zanamivir Absolute Bioavailability in Rats: Implications for an Orally Bioavailable Influenza Treatment” (PLoS ONE, 2013).

The subject of one data set is flu strains. The conditions noted are these: cited from earlier work.
A further data set concerns seasonal H1N1. On the set-up: method as in earlier work. Particulars: 2009 tests; cited from earlier work.
A further data set has as its system pandemic flu strains. Also noted: method as in earlier work. The conditions noted are these: 2009 tests; cited from earlier work.

Consider `CC(=O)N[C@H]1[C@H]([C@H](O)[C@H](O)CO)OC(C(=O)O)=C[C@@H]1N=C(N)N` [Zanamivir, zanamivir], for which the Resistance entry in the data set with flu strains is on record as “has not been observed”. In the case of `CCOC(=O)C1=C[C@@H](OC(CC)CC)[C@H](NC(C)=O)[C@@H](N)C1` [oseltamivir], the Strains resistant in the data set on seasonal H1N1 is on record as 99.6%; in the data set with pandemic flu strains it was 0.5%.
